{
  "source": "patent US8575189B2",
  "about": "“Tacrolimus preparation for external applications” (Takata Seiyaku Co., Ltd., priority 2008, dated 2013)",
  "test": "Solubility of tacrolimus in triacetin",
  "type": "physicochemical",
  "settings": "free form, in triacetin at 25° C.",
  "experimental": "[drawing 2] (chemical name: glycerin triacetate). The properties of triacetin are described in Iyakuhin Tenkabutsu Kikaku 2003 and Iyakuhin Tenkabutsu Jiten 2007 (Yakuji Nippo), which are incorporated herein by reference. Tacrolimus in a free form may dissolve in triacetin at 25° C. in the ratio of about 12.5 g/100 g. Preferably, the external preparation of the present invention comprises triacetin at 0.1 to 30% by weight, more preferably 1.0 to 20% by weight, still more preferably 3.0 to 6.0% by weight, most preferably 4.0 to 5.0% by weight for the total amount of the preparation.",
  "data": [
    {"substance": "17-aryl-1,14-dihydroxy-12-[2-(4-hydroxy-3-methoxycyclohexyl)-1-methylbinyl]-23,25-dimethoxy-13,19,21,27-tetramethyl-11,28-dioxa-4-azatricyclo [22.3.1.04, 9] octacos-18-en-2,3,10,16-tetraone [Tacrolimus]", "values": [
      {"measurement": "dissolve in triacetin (ratio)", "result": "about 12.5 g/100 g"}
    ]}
  ]
}
